# Where two headings read alike, the source gives them in different places.
# What was measured:
# [1] = test system: male ICR mice
# Protocol: In order to examine acute toxicity of compounds according to the present invention, the following experiment was carried out.
# Over the entire experimental period of 2 weeks, the minimum lethal dose (MLD, mg/kg) of the compound was investigated by the observation of the mortality, body weight and clinical symptoms of animals.
# [2] = molecular target: T1, human 5-HT4 receptor (Homo sapiens, UniProt Q13639); experiment: Binding affinity of compounds for 5-HT4 receptor (radioligand displacement, membrane lysates of COS-7 cells); settings: inhibition of specific binding of 0.595 nM [H3]-AGR113808; COS-7 cell membrane lysates expressing human 5-HT4 receptor
# T1 construct: expressed in transfected cells; host or cells: COS-7
# Protocol: For this purpose, COS-7 cells expressing the human 5-HT4 receptor were constructed and lysed to obtain cell membrane lysates which were then used in binding assay experiments. For binding assay, the membrane lysates were mixed and incubated with different concentrations of test materials and [H3]-AGR113808. […] After incubation was completed, the reaction products were collected in a GF/B glass fiber filter using a Packard cell harvester, and the bound radioactivity was then determined using a liquid cell scintillation counter (Packard TopCount NXT™, Perkin Elmer). Specific binding of the radioligand to the 5-HT4 receptor was calculated by subtracting the non-specific binding of the radioligand from the total radioligand binding. IC50 was calculated from % inhibition of specific binding of the radioligand to the 5-HT4 receptor, with respect to varying concentrations of the test materials.
# [3] = molecular target: T2, hERG potassium channel (Homo sapiens, UniProt Q12809); experiment: Binding affinity of compounds for hERG receptor ([H3]-Astemizole displacement, HEK-293 membrane lysates); settings: % inhibition of specific binding of 1.5 nM [H3]-Astemizole at 10 μM test material
# T2 construct: host or cells: HEK-293
# Protocol: Membrane lysates were obtained from mammalian HEK-293 cells expressing the hERG potassium channel and used in binding assay experiments. […] After incubation was completed, the radioactivity bound to the hERG K+ channel was counted. The affinity of each test material for the hERG K+ channel was calculated from % inhibition of specific binding of the radioligand to the hERG K+ channel, resulting from the action of the test material.
# [4] = male, ICR, mouse, in vivo, po, 2 weeks
# [5] = oral, single dose of 1 g/10 mL/kg in 1% hydroxypropylmethylcellulose, 5-week old male ICR mice, observed 2 weeks
# T1 sequence (Q13639 whole entry): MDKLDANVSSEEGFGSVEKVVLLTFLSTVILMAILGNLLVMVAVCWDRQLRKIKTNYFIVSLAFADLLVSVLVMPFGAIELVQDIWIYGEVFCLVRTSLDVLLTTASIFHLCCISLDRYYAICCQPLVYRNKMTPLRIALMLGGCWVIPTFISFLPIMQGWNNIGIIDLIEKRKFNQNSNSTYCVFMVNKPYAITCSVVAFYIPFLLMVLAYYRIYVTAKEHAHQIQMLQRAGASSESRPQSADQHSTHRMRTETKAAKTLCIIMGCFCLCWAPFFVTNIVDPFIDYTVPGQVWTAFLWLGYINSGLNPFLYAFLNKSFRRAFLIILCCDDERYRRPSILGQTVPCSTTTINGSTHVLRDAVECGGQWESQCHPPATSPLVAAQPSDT
# T2 sequence (Q12809 whole entry): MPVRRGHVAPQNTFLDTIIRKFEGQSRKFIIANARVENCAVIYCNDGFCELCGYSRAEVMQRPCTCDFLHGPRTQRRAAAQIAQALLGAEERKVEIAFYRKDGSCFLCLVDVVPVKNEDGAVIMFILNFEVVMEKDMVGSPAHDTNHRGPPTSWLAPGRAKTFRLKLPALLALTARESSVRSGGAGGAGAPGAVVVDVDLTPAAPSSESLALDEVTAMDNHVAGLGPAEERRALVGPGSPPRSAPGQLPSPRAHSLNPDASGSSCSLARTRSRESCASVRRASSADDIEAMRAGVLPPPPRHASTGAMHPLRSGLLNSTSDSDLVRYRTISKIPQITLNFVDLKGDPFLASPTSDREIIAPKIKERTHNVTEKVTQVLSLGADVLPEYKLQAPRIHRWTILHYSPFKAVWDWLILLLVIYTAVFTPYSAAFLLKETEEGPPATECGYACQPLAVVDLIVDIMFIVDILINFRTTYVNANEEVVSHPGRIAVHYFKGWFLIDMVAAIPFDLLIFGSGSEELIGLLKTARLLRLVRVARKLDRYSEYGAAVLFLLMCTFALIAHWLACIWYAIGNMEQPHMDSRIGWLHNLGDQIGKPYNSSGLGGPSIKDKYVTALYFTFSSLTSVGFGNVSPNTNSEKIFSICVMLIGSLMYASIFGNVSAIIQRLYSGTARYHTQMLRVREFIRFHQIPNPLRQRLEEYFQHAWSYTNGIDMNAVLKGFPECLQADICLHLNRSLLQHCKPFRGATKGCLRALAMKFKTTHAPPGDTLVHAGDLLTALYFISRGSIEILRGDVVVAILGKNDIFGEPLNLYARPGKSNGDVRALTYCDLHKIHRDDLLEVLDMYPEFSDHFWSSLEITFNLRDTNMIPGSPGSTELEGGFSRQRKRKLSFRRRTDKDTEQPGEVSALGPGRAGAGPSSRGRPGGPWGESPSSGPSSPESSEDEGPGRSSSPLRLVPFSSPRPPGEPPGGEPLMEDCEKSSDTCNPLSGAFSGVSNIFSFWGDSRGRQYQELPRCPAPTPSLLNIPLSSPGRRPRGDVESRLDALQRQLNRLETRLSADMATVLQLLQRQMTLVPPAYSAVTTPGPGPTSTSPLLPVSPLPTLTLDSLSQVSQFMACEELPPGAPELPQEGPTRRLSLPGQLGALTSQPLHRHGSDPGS
SMILES,"Minimum lethal dose (MLD, mg/kg) [1, 4] [mg/kg]",IC50 [2] [nM],"Minimum lethal dose (MLD, mg/kg) [1, 5] [mg/kg]",hERG binding affinity (% at 10 μM) [3] [%]
"COc1cc(N)c(Cl)cc1C(=O)N[C@H]1CCN(CC2CCN(C(=O)N(C)C)CC2)C[C@H]1OC (relative stereo) [Compound 64, 4-[cis-4-(4-amino-5-chloro-2-methoxybenzoylamino)-3-methoxy-piperidin-1-ylmethyl]-piperidine-1-carboxylic acid dimethylamide]",>1000,29,–,–
"COc1cc(N)c(Cl)cc1C(=O)NC1CCN(CCCOc2ccc(F)cc2)CC1OC (stereo not shown) [Cisapride, cisapride, reference compound]",>1000,–,–,–
"CCOC(=O)N1CCC(CN2CC[C@H](NC(=O)c3cc(Cl)c(N)cc3OC)[C@H](OC)C2)CC1 (relative stereo) [Compound 1, ethyl 4-[(cis-4-(4-amino-5-chloro-2-methoxybenzamido)-3-methoxypiperidin-1-yl)methyl]piperidine-1-carboxylate]",–,230,>1000,–
"COc1cc(N)c(Cl)cc1C(=O)N[C@@H]1CCN(CCc2noc(C)n2)C[C@@H]1OC [Compound 55, (3S,4R)-4-amino-5-chloro-N-[1-(2-(5-methyl-1,2,4-oxadiazol-3-yl)ethyl)-3-methoxypiperidin-4-yl]-2-methoxybenzamide]",–,–,–,31
"COc1cc(N)c(Cl)cc1C(=O)N[C@H]1CCN(CCC(=O)Nc2cc(C)cc(C)n2)C[C@H]1OC (relative stereo) [Compound 59, cis-4-amino-5-chloro-N-[1-(3-oxo-3-(4,6-dimethylpyridin-2-ylamino)propyl)-3-methoxypiperidin-4-yl]-2-methoxybenzamide]",>1000,140,–,–
"COc1cc(N)c(Cl)cc1C(=O)N[C@H]1CCN(CCc2noc(C)n2)C[C@H]1OC (relative stereo) [Compound 54, cis-4-amino-5-chloro-N-[1-(2-(5-methyl-1,2,4-oxadiazol-3-yl)ethyl)-3-methoxypiperidin-4-yl]-2-methoxybenzamide]",>1000,–,–,–
"CCC(=O)N1CCC(CN2CC[C@H](NC(=O)c3cc(Cl)c(N)cc3OC)[C@H](OC)C2)CC1 (relative stereo) [Compound 17, cis-4-amino-5-chloro-N-[1-((1-propionylpiperidin-4-yl)methyl)-3-methoxypiperidin-4-yl]-2-methoxybenzamide]",>1000,–,–,–
"CCCOC(=O)N1CCC(CN2CC[C@H](NC(=O)c3cc(Cl)c(N)cc3OC)[C@H](OC)C2)CC1 (relative stereo) [Compound 6, propyl 4-[(cis-4-(4-amino-5-chloro-2-methoxybenzamido)-3-methoxypiperidin-1-yl)methyl]piperidine-1-carboxylate]",–,94,>1000,–
"COc1cc(N)c(Cl)cc1C(=O)N[C@H]1CCN(CC2CCN(C(=O)C(C)C)CC2)C[C@H]1OC (relative stereo) [Compound 14, cis-4-amino-5-chloro-N-[1-((1-isobutyrylpiperidin-4-yl)methyl)-3-methoxypiperidin-4-yl]-2-methoxybenzamide]",>1000,141,–,–
"COc1cc(N)c(Cl)cc1C(=O)N[C@H]1CCN(CC2CCN(C(=O)NC(C)C)CC2)C[C@H]1OC (relative stereo) [Compound 63, 4-[cis-4-(4-amino-5-chloro-2-methoxybenzoylamino)-3-methoxy-piperidin-1-ylmethyl]-piperidine-1-carboxylic acid isopropylamide]",–,25,>1000,–
"COc1cc(N)c(Cl)cc1C(=O)N[C@H]1CCN(CCC(=O)Nc2cccc3ncccc23)C[C@H]1OC (relative stereo) [Compound 56, cis-4-amino-5-chloro-N-[1-(3-oxo-3-(quinolin-5-yl-amino)propyl)-3-methoxypiperidin-4-yl]-2-methoxybenzamide]",>1000,11,–,23
"CCOC(=O)N1CCC(CN2CC[C@@H](NC(=O)c3cc(Cl)c(N)cc3OC)[C@@H](OC)C2)CC1 [Compound 2, ethyl 4-[((3S,4R)-4-(4-amino-5-chloro-2-methoxybenzamido)-3-methoxypiperidin-1-yl)methyl]piperidine-1-carboxylate]",–,83,>1000,–
"CCCCCC(=S)N1CCC(CN2CC[C@H](NC(=O)c3cc(Cl)c(N)cc3OC)[C@H](OC)C2)CC1 (relative stereo) [Compound 34, cis-4-amino-5-chloro-N-[1-((1-hexanethioylpiperidin-4-yl)methyl)-3-methoxypiperidin-4-yl]-2-methoxybenzamide]",–,52,–,–
"COc1cc(N)c(Cl)cc1C(=O)N[C@H]1CCN(CCC(=O)Nc2ccc3[nH]ccc3c2)C[C@H]1OC (relative stereo) [Compound 61, cis-4-amino-5-chloro-N-[1-(3-oxo-3-(1H-indol-5-ylamino)propyl)-3-methoxypiperidin-4-yl]-2-methoxybenzamide]",–,48,–,–
"COc1cc(N)c(Cl)cc1C(=O)N[C@H]1CCN(CC2CCN(S(C)(=O)=O)CC2)C[C@H]1OC (relative stereo) [Compound 43, cis-4-amino-5-chloro-N-[1-((1-(methylsulfonyl)piperidin-4-yl)methyl)-3-methoxypiperidin-4-yl]-2-methoxybenzamide]",–,167,–,–
"COc1cc(N)c(Cl)cc1C(=O)N[C@H]1CCN(CC2CCN(C(C)=S)CC2)C[C@H]1OC (relative stereo) [Compound 31, cis-4-amino-5-chloro-N-[1-((1-ethanethioylpiperidin-4-yl)methyl)-3-methoxypiperidin-4-yl]-2-methoxybenzamide]",–,214,–,–
"CCOC(=O)N1CCC(CCN2CC[C@H](NC(=O)c3cc(Cl)c(N)cc3OC)[C@H](OC)C2)CC1 (relative stereo) [Compound 3, ethyl 4-[2-(cis-4-(4-amino-5-chloro-2-methoxybenzamido)-3-methoxypiperidin-1-yl)ethyl]piperidine-1-carboxylate]",–,151,–,–
"CCCC(=O)N1CCC(CN2CC[C@H](NC(=O)c3cc(Cl)c(N)cc3OC)[C@H](OC)C2)CC1 (relative stereo) [Compound 20, cis-4-amino-5-chloro-N-[1-((1-butyrylpiperidin-4-yl)methyl)-3-methoxypiperidin-4-yl]-2-methoxybenzamide]",–,106,–,–
"CCCCOC(=O)N1CCC(CN2CC[C@H](NC(=O)c3cc(Cl)c(N)cc3OC)[C@H](OC)C2)CC1 (relative stereo) [Compound 7, butyl 4-[(cis-4-(4-amino-5-chloro-2-methoxybenzamido)-3-methoxypiperidin-1-yl)methyl]piperidine-1-carboxylate]",–,53,–,–
"COc1cc(N)c(Cl)cc1C(=O)N[C@H]1CCN(CC2CCN(C(=O)C(C)(C)C)CC2)C[C@H]1OC (relative stereo) [Compound 29, cis-4-amino-5-chloro-N-[1-((1-pivaloylpiperidin-4-yl)methyl)-3-methoxypiperidin-4-yl]-2-methoxybenzamide]",>1000,34,–,–
"COc1cc(N)c(Cl)cc1C(=O)N[C@H]1CCN(CC2CCN(C(=O)CCC(C)C)CC2)C[C@H]1OC (relative stereo) [Compound 27, cis-4-amino-5-chloro-N-[1-((1-(4-methylpentanoyl)piperidin-4-yl)methyl)-3-methoxypiperidin-4-yl]-2-methoxybenzamide]",–,89,–,–
"COc1cc(N)c(Cl)cc1C(=O)N[C@H]1CCN(CC2CCN(C(=O)OC(C)C)CC2)C[C@H]1OC (relative stereo) [Compound 8, isopropyl 4-[(cis-4-(4-amino-5-chloro-2-methoxybenzamido)-3-methoxypiperidin-1-yl)methyl]piperidine-1-carboxylate]",–,130,–,–
"COc1cc(N)c(Cl)cc1C(=O)N[C@H]1CCN(CC2CCN(C(=O)OCCCC(C)C)CC2)C[C@H]1OC (relative stereo) [Compound 13, 4-methyl-pentyl 4-[(cis-4-(4-amino-5-chloro-2-methoxybenzamido)-3-methoxypiperidin-1-yl)methyl]piperidine-1-carboxylate]",–,146,–,–
"COc1cc(N)c(Cl)cc1C(=O)N[C@H]1CCN(CCCCCC(=O)Nc2cccc3ncccc23)C[C@H]1OC (relative stereo) [Compound 58, cis-4-amino-5-chloro-N-[1-(6-oxo-6-(quinolin-5-ylamino)hexyl)-3-methoxypiperidin-4-yl]-2-methoxybenzamide]",–,77,–,–

# Reference: patent publication US20100105727A1, “NOVEL BENZAMIDE DERIVATIVES AND PROCESS FOR THE PREPARTION THEREOF” (DONG-A-PHARM. CO., LTD., priority 2007, published 2010)
